Key:
[1] = Growth inhibition of PI3Kdelta-overexpressing human Pfeiffer cells incubated for 72 hrs by MTT assay; type: functional
[2] = target: Phosphatidylinositol 4,5-bisphosphate 3-kinase catalytic subunit alpha isoform (Homo sapiens, UniProt P42336); assay: Inhibition of recombinant PI3Kalpha (unknown origin) using PIP2:3PS as substrate preincubated for 20 mins followed by ATP addition and measured after 1 hrs by ADP-Glo reagent based assay
[3] = Growth inhibition of PI3Kdelta-overexpressing human SU-DHL-6 cells incubated for 72 hrs by MTT assay; type: functional
[4] = Chemical reactivity of the compound with N-Boc-Lysine assessed as half-life at 1 uM by HPLC analysis; type: physicochemical; conditions: incubation with N-Boc-Lysine
[5] = target: T1, Phosphatidylinositol 4,5-bisphosphate 3-kinase catalytic subunit delta isoform (Homo sapiens, UniProt O00329); assay: Inhibition of recombinant PI3Kdelta (unknown origin) using PIP2:3PS as substrate preincubated for 20 mins followed by ATP addition and measured after 1 hrs by ADP-Glo reagent based assay
T1 sequence (O00329 whole entry): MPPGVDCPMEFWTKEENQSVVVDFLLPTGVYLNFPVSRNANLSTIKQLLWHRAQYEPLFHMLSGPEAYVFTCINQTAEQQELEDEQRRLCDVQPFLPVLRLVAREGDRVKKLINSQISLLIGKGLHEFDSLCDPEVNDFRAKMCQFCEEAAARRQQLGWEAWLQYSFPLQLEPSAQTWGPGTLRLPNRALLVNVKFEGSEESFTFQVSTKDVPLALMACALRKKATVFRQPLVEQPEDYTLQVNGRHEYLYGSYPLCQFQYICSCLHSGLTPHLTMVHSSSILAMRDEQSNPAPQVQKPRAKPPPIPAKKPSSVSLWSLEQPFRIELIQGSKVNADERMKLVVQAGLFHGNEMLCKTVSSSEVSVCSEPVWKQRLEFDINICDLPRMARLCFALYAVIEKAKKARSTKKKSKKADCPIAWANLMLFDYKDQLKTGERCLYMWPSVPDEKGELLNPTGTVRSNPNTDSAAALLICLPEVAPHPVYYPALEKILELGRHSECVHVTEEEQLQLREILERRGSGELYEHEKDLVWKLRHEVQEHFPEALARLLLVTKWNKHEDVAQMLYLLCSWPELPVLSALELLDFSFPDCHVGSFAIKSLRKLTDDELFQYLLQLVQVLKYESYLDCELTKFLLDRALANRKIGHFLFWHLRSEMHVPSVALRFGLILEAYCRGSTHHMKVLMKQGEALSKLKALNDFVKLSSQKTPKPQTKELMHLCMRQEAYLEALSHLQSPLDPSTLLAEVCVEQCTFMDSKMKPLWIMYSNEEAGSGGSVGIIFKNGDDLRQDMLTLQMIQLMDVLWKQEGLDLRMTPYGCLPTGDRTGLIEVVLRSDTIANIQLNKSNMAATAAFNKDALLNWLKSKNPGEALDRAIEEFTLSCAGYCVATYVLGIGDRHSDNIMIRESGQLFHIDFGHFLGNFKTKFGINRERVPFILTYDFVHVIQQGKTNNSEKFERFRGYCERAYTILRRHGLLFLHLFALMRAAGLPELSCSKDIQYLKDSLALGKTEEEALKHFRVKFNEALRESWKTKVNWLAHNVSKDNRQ

Phosphatidylinositol 4,5-bisphosphate 3-kinase catalytic subunit alpha isoform, sequence (P42336 whole entry, canonical isoform): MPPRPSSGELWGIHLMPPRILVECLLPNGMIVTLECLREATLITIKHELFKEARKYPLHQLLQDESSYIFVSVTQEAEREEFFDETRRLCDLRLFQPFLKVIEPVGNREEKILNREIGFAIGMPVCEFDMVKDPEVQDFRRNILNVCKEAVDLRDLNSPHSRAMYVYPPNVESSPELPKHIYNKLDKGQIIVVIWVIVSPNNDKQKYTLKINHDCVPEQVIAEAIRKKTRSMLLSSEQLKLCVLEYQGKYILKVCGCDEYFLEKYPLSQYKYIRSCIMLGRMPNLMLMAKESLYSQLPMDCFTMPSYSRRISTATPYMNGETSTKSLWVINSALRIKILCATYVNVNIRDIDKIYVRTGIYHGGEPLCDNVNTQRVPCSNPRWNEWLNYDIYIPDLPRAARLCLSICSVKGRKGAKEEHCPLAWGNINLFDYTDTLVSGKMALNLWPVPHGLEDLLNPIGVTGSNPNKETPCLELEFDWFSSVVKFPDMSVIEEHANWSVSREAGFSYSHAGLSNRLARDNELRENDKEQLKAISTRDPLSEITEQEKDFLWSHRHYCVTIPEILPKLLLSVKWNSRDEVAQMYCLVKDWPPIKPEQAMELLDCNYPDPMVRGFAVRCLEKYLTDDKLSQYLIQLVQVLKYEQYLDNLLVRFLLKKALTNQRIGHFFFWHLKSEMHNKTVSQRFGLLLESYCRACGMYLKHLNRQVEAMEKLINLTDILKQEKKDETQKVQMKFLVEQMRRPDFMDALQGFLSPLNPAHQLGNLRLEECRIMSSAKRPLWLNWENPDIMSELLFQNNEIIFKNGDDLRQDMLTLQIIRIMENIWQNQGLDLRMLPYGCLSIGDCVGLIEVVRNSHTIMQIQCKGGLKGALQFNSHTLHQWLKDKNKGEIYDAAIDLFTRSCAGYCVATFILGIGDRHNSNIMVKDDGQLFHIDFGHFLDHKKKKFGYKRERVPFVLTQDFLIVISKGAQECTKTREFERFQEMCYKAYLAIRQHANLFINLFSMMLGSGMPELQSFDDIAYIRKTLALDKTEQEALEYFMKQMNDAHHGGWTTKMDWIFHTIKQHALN

Row | Structure (SMILES) | IC50 [2] [nM] | half-life at 1 µM [4] [min] | IC50 [5] [nM] | GI50 [1] [nM] | GI50 [3] [nM]
1 | COc1ncc(-c2ccc3ncnc(N[C@H]4CCN(C(=O)C5CCOCC5)C4)c3c2)cc1C(=O)Oc1ccc([N+](=O)[O-])cc1 | 120 | < 1 | 6.6 | 575 | 52
2 | COc1ncc(-c2ccc3ncnc(N[C@H]4CCN(C(=O)C5CCOCC5)C4)c3n2)cc1C(=O)Oc1ccc([N+](=O)[O-])cc1 | 10.4 | < 1 | 2.31 | 788 | 20
3 | COC(=O)c1cc(-c2ccc3ncnc(N[C@H]4CCN(C(=O)C5CCOCC5)C4)c3n2)cnc1OC | > 1000 | > 1440 | 1.21 | 447 | 42
4 | COc1ncc(-c2ccc3ncnc(N[C@H]4CCN(C(=O)C5CCOCC5)C4)c3n2)cc1C(=O)Oc1ccc(C(F)(F)F)cc1 | 93.3 | 1.7 | 1.01 | 1260 | 96
5 | COc1ncc(-c2ccc3ncnc(N[C@H]4CCN(C(=O)C5CCOCC5)C4)c3n2)cc1CCl | – | 430 | 10.4 | 570 | 340
6 | COc1ncc(-c2ccc3ncnc(N[C@H]4CCN(C(=O)C5CCOCC5)C4)c3n2)cc1C(=O)Oc1ccc(Cl)cc1 | > 1000 | 10.1 | 2.57 | 776 | 157
7 | COc1ncc(-c2ccc3ncnc(N[C@H]4CCN(C(=O)C5CCOCC5)C4)c3c2)cc1C(=O)Oc1c(F)cc(F)cc1F | 86.9 | < 1 | 1.08 | 260 | 32
8 | C#Cc1ccc(-c2ccc3ncnc(N[C@H]4CCN(C(=O)C5CCOCC5)C4)c3c2)cc1C=O | – | 1.9 | 2.67 | 4180 | 850
9 | COc1ncc(-c2ccc3ncnc(N[C@H]4CCN(C(=O)C5CCOCC5)C4)c3c2)cc1C(=O)Oc1ccc(Cl)cc1 | > 1000 | 12.7 | 0.79 | 276 | 16
10 | C=CC(=O)Nc1cc(-c2ccc3ncnc(N[C@H]4CCN(C(=O)C5CCOCC5)C4)c3c2)cnc1OC | – | > 1440 | 8.59 | 1520 | 710
11 | COc1ncc(-c2ccc3ncnc(N[C@H]4CCN(C(=O)C5CCOCC5)C4)c3c2)cc1C(=O)Oc1ccc(C(F)(F)F)cc1 | 330 | 1.9 | 0.93 | 816 | 133
12 | COc1ncc(-c2ccc3ncnc(N[C@H]4CCN(C(=O)C5CCOCC5)C4)c3n2)cc1C(=O)Oc1ccc(Cl)cc1Cl | > 1000 | 1.1 | 1.42 | 752 | 53
13 | COc1ncc(-c2ccc3ncnc(N[C@H]4CCN(C(=O)C5CCOCC5)C4)c3n2)cc1C(=O)Oc1cccnc1 | 254 | 2.8 | 0.7 | 662 | 122
14 | COc1ncc(-c2ccc3ncnc(N[C@H]4CCN(C(=O)C5CCOCC5)C4)c3c2)cc1C=O | – | 2.1 | 48.8 | 200 | 170
15 | COc1ncc(-c2ccc3ncnc(N[C@H]4CCN(C(=O)C5CCOCC5)C4)c3n2)cc1C(=O)Oc1ccc(F)cc1F | 29.8 | 3.2 | 3.19 | 420 | 31
16 | C=CC(=O)Nc1cc(-c2ccc3ncnc(N[C@H]4CCN(C(=O)C5CCOCC5)C4)c3n2)cnc1OC | – | > 1440 | 47.8 | 1190 | 650
17 | O=Cc1cc(-c2ccc3ncnc(N[C@H]4CCN(C(=O)C5CCOCC5)C4)c3n2)ccc1O | – | < 1 | 5.58 | 5480 | 710

Continued by falling IC50 [5], values first:

Row | IC50 [2] [nM] | half-life at 1 µM [4] [min] | IC50 [5] [nM] | Structure (SMILES) | GI50 [1] [nM] | GI50 [3] [nM]
18 | – | 2.3 | 93.5 | COc1ncc(-c2ccc3ncnc(N[C@H]4CCN(C(=O)C5CCOCC5)C4)c3n2)cc1C=O | 310 | 350
19 | – | 420 | 24.2 | COc1ncc(-c2ccc3ncnc(N[C@H]4CCN(C(=O)C5CCOCC5)C4)c3c2)cc1CCl | 490 | 310
20 | – | < 1 | 6.46 | O=Cc1cc(-c2ccc3ncnc(N[C@H]4CCN(C(=O)C5CCOCC5)C4)c3c2)ccc1O | 7780 | 320
21 | > 1000 | < 1 | 4.93 | COc1ncc(-c2ccc3ncnc(N[C@H]4CCN(C(=O)C5CCOCC5)C4)c3n2)cc1C(=O)Oc1c(F)cc(F)cc1F | 438 | 65
22 | > 1000 | < 1 | 4.53 | COc1ncc(-c2ccc3ncnc(N[C@H]4CCN(C(=O)C5CCOCC5)C4)c3c2)cc1C(=O)Oc1ccc(C#N)cc1 | 479 | 27
23 | 145 | 353 | 2.47 | COc1ncc(-c2ccc3ncnc(N[C@H]4CCN(C(=O)C5CCOCC5)C4)c3c2)cc1C(=O)Oc1ccc(C)cc1 | 137 | 3
24 | 51.4 | < 1 | 1.86 | COc1ncc(-c2ccc3ncnc(N[C@H]4CCN(C(=O)C5CCOCC5)C4)c3n2)cc1C(=O)Oc1ccc(C#N)cc1 | 425 | 32
25 | – | 2.1 | 1.48 | C#Cc1ccc(-c2ccc3ncnc(N[C@H]4CCN(C(=O)C5CCOCC5)C4)c3n2)cc1C=O | 2320 | 430
26 | 39.3 | 3.1 | 1.47 | COc1ncc(-c2ccc3ncnc(N[C@H]4CCN(C(=O)C5CCOCC5)C4)c3c2)cc1C(=O)Oc1ccc(F)cc1F | 433 | 64
27 | 54.2 | 359 | 1.17 | COc1ccc(OC(=O)c2cc(-c3ccc4ncnc(N[C@H]5CCN(C(=O)C6CCOCC6)C5)c4n3)cnc2OC)cc1 | 138 | 8
28 | 663 | 2.5 | 0.26 | COc1ncc(-c2ccc3ncnc(N[C@H]4CCN(C(=O)C5CCOCC5)C4)c3c2)cc1C(=O)Oc1cccnc1 | 199 | 19

— ChEMBL document CHEMBL6127139, “Lysine-Targeted Covalent Inhibitors of PI3Kδ Synthesis and Screening by In Situ Interaction Upgradation” (J Med Chem, 2024)
